Experimental data reported in US20160237400A1, “ISOLATION OF NON-EMBRYONIC STEM CELLS AND USES THEREOF” (The Jackson Laboratory, priority 2013, published 2016).
Entries after “also recorded” stand apart in the source; their conditions may differ.

Columns and labels:
[1] = test system: paclitaxel resistant (G3) IC#1 CSC library; assay: plate (colony formation) assay, paclitaxel-resistant CSC library; type: cell-based, human
Experimental: (§1) Survivors were re-plated en masse, and cycled through two additional rounds of 100 nM paclitaxel for 3 hours with recovery in between for 10 days, after which visible colonies were selected and individually expanded as pedigrees (FIG. 28B). To determine relationships between these ad hoc, paclitaxel-resistant pedigrees from the library and the 92 randomly sampled pedigrees from the treatment-naïve IC#1 library assessed for CSC heterogeneity, their CNV profiles were mapped onto the heterogeneity map established for IC#1.
The GSEA data in the table above highlighted the PGR pathway. Analysis of gene expression in the IC#1 CSC library treated with successive rounds of paclitaxel indeed confirmed a progressive increase in PGR expression (FIG. 31). […] The fate of 25,000 colony forming units from the IC#1 CSC library and the paclitaxel resistant library (G3) following exposure to combinations of paclitaxel, RU486, and cisplatin were directly compared. RU486 is a PGR antagonist that has previously been tested and failed as a single agent in clinical trials for recurrent ovarian cancer.
Next, the long-term impact of these drug combinations on the paclitaxel-resistant G3 pool over successive rounds of exposure was investigated.
(§2) High-grade ovarian cancer was surgically resected, and tumor tissue was collected into cold F12 media (Gibco, USA) with 5% fetal bovine serum (HyClone, USA) and then minced by sterile scalpel into 0.2-0.5 mm^3 sizes to a viscous and homogeneous appearance. The minced tissue was digested in 2 mg/mL collagenase type IV (Gibco, USA) at 37° C. for 30-60 min with agitation. Dissociated cells were passed through a 70 μm Nylon mesh (Falcon, USA) to remove aggregates and then were washed four times in cold F12 media, and then seeded onto a feeder layer of lethally irradiated 3T3-J2 cells in c-FAD media modified to SCM-68 media by the addition of 125 ng/mL R-spondin1 (R&D systems, USA), 1 μM Jagged-1 (AnaSpec Inc., USA), 100 ng/ml human Noggin (Peprotech, USA), 2.5 μM Rock-inhibitor (Calbiochem, USA), 2 μM SB431542 (Cayman chemical, USA), and 10 mM nicotinamide (Sigma-Aldrich, USA).
Cells were cultured at 37° C. in a 7.5% CO2 incubator. The culture media was replaced every two days. Colonies were digested by 0.25% trypsin-EDTA solution (Gibco, USA) for 5-8 min and passaged every 7 to 10 days. Colonies were trypsinized by TrypLE Express solution (Gibco, USA) for 8-15 min at 37° C. and cell suspensions were passed through 30 μm filters (Miltenyi Biotec, Germany). Approximately 20,000 epithelial cells were seeded to each well of 6-well plate. Cloning cylinder (Pyrex, USA) and high vacuum grease (Dow Corning, USA) were used to select single colonies for pedigrees. Gene expression analyses were performed on cells derived from passage 2-8 (P2-P8) cultures.

[2] = test system: Krt5+ / Krt6+ cells in lung of Krt6-DTR mice; details: in vivo
[3] = test system: stem cell colonies (DASCp63/Krt5) from Krt6-DTR and WT mouse lung; type: cell-based
[4] = test system: CSC pedigrees sampled from Groups B, C, D, E, F and G of the IC#1 library; assay: paclitaxel challenge of sampled CSC pedigrees of Groups B to G; type: cell-based, human
[5] = test system: CD166hi CSC clones from the IC#1 library; assay: drug challenge of CD166hi sorted CSC clones; type: cell-based, human; details: clones flow sorted for CD166 from the IC#1 library, individually tested
[6] = test system: N11 CSC pedigree (IC#1 library); assay: paclitaxel challenge of sampled CSC pedigree N11; type: cell-based, human
[7] = test system: CSCs from the IC#1 library (G0), high-grade ovarian cancer; assay: plate (colony formation) assay, rhodamine B stain, treatment-naive CSC library; type: cell-based, human
Experimental: To probe for paclitaxel resistance in the IC#1 library of CSCs, a paclitaxel dose-response curved were established by challenging 10,000 CSCs with a spectrum of paclitaxel concentrations. […] The plates were then stained with rhodamine B. Rhodamine B-stained 100 nM paclitaxel treatment plate yielded less than 0.1% of the control colonies.
as §1, §2
Cells were cultured at 37° C. in a 7.5% CO2 incubator. The culture media was replaced every two days. Colonies were digested by 0.25% trypsin-EDTA solution (Gibco, USA) for 5-8 min and passaged every 7 to 10 days. […]

[8] = test system: CSCs from the IC#2 library; assay: paclitaxel challenge of IC#2 CSCs; type: cell-based, human; details: parameters identical to IC#1 (100 nM, 3 hours, three rounds); 37 individual CSCs

CC(C)C[C@H](NC(=O)[C@H](CCc1ccccc1)NC(=O)CN1CCOCC1)C(=O)N[C@@H](Cc1ccccc1)C(=O)N[C@@H](CC(C)C)C(=O)[C@@]1(C)CO1 [carfilzomib]
effect towards resistant CSCs of IC#1 when used together with paclitaxel [1]: synthetic lethality

diphtheria toxin
reduction of clonogenic cell number versus WT mouse with DT (clonogenic assay) [2]: 70-80% | loss of Krt5+ cells compared to wild type controls ([2]; mouse): 90% | loss of Krt6+ cells compared to wild type controls ([2]; mouse): greater than 99% | reduction of Krt5+ cell number versus WT (IF staining) ([2]; mouse, ip): 70% | reduction of Krt6+ cell number versus WT (IF staining) ([2]; mouse, ip): ~90% | fate of Krt6-DTR stem cell colonies on diphtheria toxin [3]: die within four days; also recorded: dies after 4 days | fate of control (WT) colonies on diphtheria toxin [3]: continued to proliferate and expand in size; also recorded: looks normal | sensitivity of Krt6 negative endothelial cells from Krt6-DTR mice [3]: insensitive

CC(=O)O[C@H]1C(=O)[C@@]2(C)[C@H]([C@H](OC(=O)c3ccccc3)[C@]3(O)C[C@H](OC(=O)[C@H](O)[C@@H](NC(=O)c4ccccc4)c4ccccc4)C(C)=C1C3(C)C)[C@]1(OC(C)=O)CO[C@@H]1C[C@@H]2O [paclitaxel]
resistance at the third round ([4]; CSCs within group B, third round of paclitaxel): less than 35% | resistance to initial challenge ([4]; single dose of 100 nM paclitaxel, representative CSCs from the other six clusters): little or no resistance | CD166hi clones tested with intrinsic resistance [5]: 21% | cells survived initial challenge ([6]; initial challenge, single dose of 100 nM paclitaxel): 17.5% | resistance after two additional challenges ([6]; third round of paclitaxel): ~100% | colonies relative to control colonies ([7]; 100 nM paclitaxel for 3 hours, about 10,000 colony-forming units, rhodamine B stain): less than 0.1% | activity against the treatment naive IC#1 G0 library ([7]; 25,000 colony-forming units, single agent): strong activity | resistance to initial challenge ([7]; single dose of 100 nM paclitaxel, IC#1 library): little or no resistance | survival of triple paclitaxel challenge [8]: none of the 37 individual CSCs from the IC#2 library survived | survival (colonies) of the paclitaxel-resistant G3 pool ([1]; 25,000 colony-forming units, G4 challenge): 15% | resistance over four additional successive rounds of exposure, measured by colony formation ([1]; Ru486 10 μM, paclitaxel 100 nM, cisplatin 20 μM): progressive resistance

CC(C)C[C@H](NC(=O)[C@H](Cc1ccccc1)NC(=O)c1cnccn1)B(O)O [bortezomib]
effect towards resistant CSCs of IC#1 when used together with paclitaxel [1]: synthetic lethality
